Experimental findings from US5702923A, “Method of making a lactococcal bacteriocin” (Quest International Flavors & Food Ingredients Company, a …, priority 1992, dated 1997) are described below.

The subject of one assay is L. monocytogenes 69. The assay can be described thus: Inhibition of Listeria, LL-1 compared with nisin. The assay is classed as cell-based, Listeria monocytogenes. Also on record: key: + = Inhibition; - = No inhibition. As to conditions: 370 IU/ml, nisin purified from the broth. From the text: This is shown by the following data in Table 5.
The next assay concerns Listeria monocytogenes. The assay can be described thus: Spot assay of filter sterilized supernatant (LL-1 broth) on indicator lawn. Type of assay: cell-based. The following applies: as crude filter sterilized broth or dried powder from the broth, not purified. As to the method: To produce the bacteriocin, 500 ml of MRS broth (Difco) was inoculated at 1% with an 8 hour old culture of LLA 1.0 grown in MRS broth (Difco, Detroit, Mich.) and was incubated statically at 32° C. for 24 hours. After 24 hours the cells were removed by centrifugation at 16,000×g for 20 minutes at 4° C. The supernatant was filtered through a 0.22 micron (pore size) filter (Millipore Corp. Bedford, Mass.). The supernatant was assayed for bacteriocin activity by spotting 5 microliters of this supernatant material onto various media overlaid with soft agar seeded with different indicator cells. These assay plates were incubated at 35° C. or 32° C., respectively. After 24 hours the plates were examined, clear zones associated with the spot were recorded as positive (growth inhibition) and negative (no growth inhibition).

For another assay, the system named is strain NRRL-B-18535. The assay can be described thus: Sensitivity of the producer strain to nisin. Type of assay: cell-based, Lactococcus lactis. The source says:
Inhibitory spectrum of LL-1. The plate assay system was used to evaluate the spectrum of bacteriocin activity. […] Strains of Streptococcus mutans, S. sanguis, S. faecalis and Listeria monocytogenes were not sensitive in this test. The strain NRRL-B-18535 was resistant to nisin.

nisin: the “Inhibition of L. monocytogenes 69” value in the assay with L. monocytogenes 69 is on record as “-”. For the same substance, in the assay with Listeria monocytogenes, the “activity against Listeria monocytogenes, in words” value is listed as “not effective”. In the assay on strain NRRL-B-18535, the “sensitivity of strain NRRL-B-18535 to nisin” value was “resistant”.
